Measurements taken from patent US5462956A, “Epibatidine and derivatives, compositions and methods of treating pain” (priority 1994, dated 1995).

Experiments:
opioid-binding sites = opioid-binding sites (Cavia porcellus, UniProt A0ACM8Q262); details: 1 nM [3H]dihydromorphine, guinea pig cerebral tissue
Method: Briefly, cerebral tissue from brains of male Hartley guinea pigs was homogenized in 10 volumes of ice-cold 50 mM Tris-HCl buffer (pH 7.4) for 20 sec. in a Polytron homogenizer at 3000 rpm. After centrifugation at 18,000 G for 10 min., the pellet was reconstructed to the same volume in Tris buffer. […] Samples were chilled to 0° and filtered through glass fiber filters, followed by two washes with 5 ml of ice cold Tris buffer. Radioactivity retained on the filter was determined with a liquid scintillation counter. Nonspecific binding of [^3 H]dihydromorphine was determined in the presence of 100 nM naloxone.

NIH mice = assay: hot plate analgesia assay (Eddy and Leimbach), with and without naloxone; format: in vivo, mouse; details: for ED50 Dose for Hot Plate Analgesia: mice, sc, hot plate 55° C., reaction times over 60 min
Method: 107, 385-393, 1953]. NIH mice were dropped onto a hot plate maintained at 55° C. and the reaction time was determined. The criterion for a reaction was kicking the hind leg, attempting to jump out, or shaking a foot and turning and licking it. Reaction time for each mouse was determined at least twice before and 5, 10, 20, 30, 45 and 60 min after administration of compound.

[1] = system: dihydromorphine binding sites; assay: binding to dihydromorphine binding sites in rodent brain membranes (background statement)
mice = system: mice
Method: The Straub-tail reaction was assayed by a standard procedure [Aceto, M. D., et. al., Brit. J. Pharmacol. 36, 225-239, 1969].

[2] = Nilsen assay of analgetic activity; details: in vivo

Chain of opioid-binding sites (A0ACM8Q262 1-400): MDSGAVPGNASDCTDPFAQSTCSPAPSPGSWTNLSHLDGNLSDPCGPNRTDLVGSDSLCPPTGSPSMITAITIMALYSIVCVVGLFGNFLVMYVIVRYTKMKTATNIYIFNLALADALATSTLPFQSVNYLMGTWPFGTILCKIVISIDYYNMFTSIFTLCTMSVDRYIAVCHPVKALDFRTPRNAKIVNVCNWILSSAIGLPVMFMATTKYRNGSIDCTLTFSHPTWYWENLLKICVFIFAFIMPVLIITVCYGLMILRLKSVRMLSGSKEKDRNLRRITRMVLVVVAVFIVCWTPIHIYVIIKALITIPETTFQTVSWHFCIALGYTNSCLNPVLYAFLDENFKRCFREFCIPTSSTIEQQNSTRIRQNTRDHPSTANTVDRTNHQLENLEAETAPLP

Row | SMILES | activity at opioid-binding sites in words (opioid-binding sites) | IC50 (opioid-binding sites; 30 min, 25°, pH 7.4) [µM] | ED50 Dose for Hot Plate Analgesia (NIH mice) [mg/kg] | antagonism of the analgesia by the opioid antagonist naloxone (background statement) (NIH mice; naloxone) | Effect of Naloxone (on analgesia) (NIH mice; naloxone 5 mg/kg sc) | potency relative to morphine in a standard analgetic test (NIH mice; subcutaneously to mice) | affinity for dihydromorphine binding sites [1] | Straub-tail reaction elicited by isolated alkaloid (mice; column fractions 108-111, mice) | Straub-tail response (mice; mice, at higher doses for epibatidine (background statement)) | dose that elicited a comparable Straub-tail reaction (mice; mouse, in vivo) [µg/kg] | effect of naloxone on the Straub-tail reaction (mice; mouse, in vivo) | blockade of the Straub-tail response by naloxone (background statement) (mice; opioid-antagonist naloxone) | Analgetic activity in the Nilsen assay [2] | dose required for a greater than 45° arch of tail (Straub-tail reaction) (mice; mouse, in vivo, sc) [mg/kg]
1 | Clc1ccc(C2CC3CCC2N3)cn1 (stereo not drawn) [Epibatidine] | nearly inactive | 8.8 | 0.005 | not antagonized | No effect | two-hundred fold more potent than morphine | very low affinity | elicited the Straub-tail reaction in mice | marked Straub-tail response | 20 | only slightly reduced the Straub-tail reaction | not blocked | Analgetic activity also was apparent | 
2 | CN1CC[C@]23c4c5ccc(O)c4O[C@H]2[C@@H](O)C=C[C@H]3[C@H]1C5 [Morphine, reference compound] |  |  | 1 |  |  |  |  |  |  |  |  |  |  | 10
